From patent publication US20030216569A1, “Method of making HIV protease inhibitors” (priority 1993, published 2003)
Structures can show the parent of a compound that is named as a salt. Where two headings read alike, the source gives them in different places.

Key:
[1] = tested on: Viral SN123 infected CEM cells
Description: Purpose: To determine IC50 CC50 for compounds:
Media A [1% DMSO] (100 microliters DMSO+9.9 ml media A)
CEM cells @ [1×10^4] cells/ml (4 plate=40 ml) (6 plate=60 ml)
(need 70 microliters of each)
A-D at [10 mM] in 100% DMSO
4 or 6 u-bottom 96-well plates
4 flat bottom 96-well plates for dilutions
8-10 boxes of sterile costar tips
Approximately 10 reagent trays
1000 cells/well=1×10^4 cells/ml=1000 cells/100 microliters 200 microliters=total volume in a well
Cell Preparation and Plating of Cells, Media A and Media A (1% DMSO)
a. Number a 96-well tissue culture plate for each compound tested, one for a control plate, and one for the control compound.
b. Count cells on hemacytometer and resuspend them in 40 ml or 80 ml of Media A at a concentration of [1×10^4]0 cells/ml.
Counting Cells on a Hemacytomer:
Label two 1.8 ml nuc tubes 1 and 2.
Put 0.5 ml of well mixed CEM cells (in growth phase) in tube 1.
Put 50 micoliters PBS and 40 microliters of trypan blue into tube 2.
Mix up the cells in tube 1 then remove 10 microliters of cells and put them into tube 2.
Mix well in tube 2, then remove 10 microliters of the stained cells and put them on the hemacytometer.
Count the number of cells in the center square of the hemacytometer with the microscope set on 10×.
The concentration of the stock CEM's in cells/ml is as follows:
Cells counted×1×10^5=Concentration of CEM's in [cells/ml].
c. Add 200 microliters Media A to: A1 of places 2-6. These are Blanks. A4-H4 of plate 1. These are Blanks.
d. Add 5 microlicers Media A to all wells of Rows A-D of plates 2-6 except A1 (the top half of each plate).
e. Add 50 microliters of Media A to wells A1-D3 of Plate 1 (the top half of the plate).
f. Add 50 microliters Media A[l% DMSO] to all wells of Columns 1-3 of plate 1.
This puts 1000 cells/well.
h. Put plates in an incubator while doing drug dilutions.
Preparation Control and Test Drugs
(1) Put 60 microliters of DMSO into all wells of Columns 2-12, Rows A-E.
(3) Put 70 microliters of A [10 mM] at 100% DMSO into well B1.
(4) Put 70 microliters of B [10 mM] at 100% DMSO into well C1.
(5) Put 70 microliters of C [10 mM] at 100% DMSO into well D1.
(6) Put 70 microliters of D [10 mM] at 100% DMSO into well E1.
Change tips before each dilution.
(1) In rows A-E of another plate make a row for the first 1:10 dilution to correspond to each compound's 100% DMSO row.
A into Row B for the first 1:10 dilution.
B into Row C for the first 1:10 dilution.
C into Row D for the first 1:10 dilution.
D into Row E for the first 1:10 dilution.
(2) Put 180 microliters of media A into all wells of rows A-E corresponding to the 100% DMSO rows. 2.5 ml needed per row.
(3) Remove 20 microliters from all wells of each row of the 100% DMSO rows and transfer it to the corresponding 1:10 row.
(1) Make a plate for every 3 compounds to be tested.
Use 20 ml of media A per plate.
(3) Transfer 25 microliters of each compound from the row in the 1:10 dilution to the corresponding two rows on the 1:100 dilution plate changing tips before each transfer.
Addition of Viral SN123 to Plates
a. Thaw Sn123 in 37° C. water bath for approximately 10 minutes.
b. Dilute Sn123 1:16 by adding 1 ml of Sn123 to 15 ml of media A.
c. Add 50 microliters of Sn123 [1:16] to wells E1-H12 of plates 2-6 and to wells E1-H3 of plate 1.
Addition of Drugs to Plates
a. Add 50 microliters of the control and test drugs from the rows in the 1:100 dilution plates to the appropriate rows in the final plates (changing tips before each transfer). One row in the 1:100 plate will do 4 rows in the final plate. Leave A1 blank.
b. Incubate all plates 7 days at 37° C. 5% CO2.
c. Do Xtt protocol on day 7 as follows:
d. Preparation of Xtt/PMS Solution: (4 plate=20 ml) (6 plate=30 ml)
100 microliters [100 mM] PMS+4.9 ml PBS=PMS at [2 mM]
(2) Heat 500 ml of H2O in microwave for 5 minutes on high.
(3) Put 20 or 30 ml of phenol red RPMI in a 50 ml centrifuge tube.
(4) Put the RPMI in the beaker of hot water.
(5) Add 20 or 30 mg of XTT to the warmed up RPMI.

HIV-1 protease = HIV-1 protease (Human immunodeficiency virus type 1 group M subtype B, UniProt P04585); experiment: Fluorescence HIV-1 Protease Inhibitor Assay (Pandex); format: biochemical; design: made in house; host or cells: E. coli K12 L507/pHP10D (NRRL B-18560)
Description: A. Preparation of Protease and Gag Fractions
Lyophils of E. coli K12 L507/pHP10D were obtained from the Northern Regional Research Laboratory, Peoria, Ill. 61604, under the accession number NRRL B-18560 (deposited Nov. 14, 1989). The lyophils were decanted into tubes containing 10 ml LB medium (10 g Bacto-tryptone, 5 g Bacto-yeast extract, and 10 g aqueous sodium chloride per liter; the pH was adjusted to 7.5 and incubated at 32° C. overnight).
A small portion of the overnight culture was placed on LB-agar (LB medium with 15 g/L Bacto-agar) plates containing 12.5 micrograms/ml tetracycline in a manner so as to obtain a single colony isolate of E. coli K12 L507/pHP10D. The single colony obtained was inoculated into 10 ml of LB medium containing 12.5 micrograms/ml tetracycline and incubated overnight at 32° C. with vigorous shaking. The 10 ml overnight culture was inoculated into LB medium containing 12.5 micrograms/ml tetracycline and incubated at 32° C. with vigorous shaking until the culture reached mid-log phase. […]
3. Preparation of Protease Fraction
A culture of E. coli K12 L507/pHP10D was grown to mid-log phase at 32° C. in LB media containing 12.5 micrograms/ml tetracycline. The cultivation temperature was quickly elevated to 40° C. to induce gene expression, and the cells were allowed to grow for 2.5 hours at this temperature before the culture was quickly chilled on ice. The cells were centrifuged and the cell pellet was resuspended in 20 ml of 50 mmol MES buffer (pH 6.0) containing 1 mmol EDTA, 1 mmol DTT, 1 mmol PMSF and 10% glycerol (“Buffer A”). Cells were lysed by sonication using a Fischer Model 300 Dismembrator and a microtip probe. Following centrifugation at 27,000×g, the supernatant was diluted to a total volume of 60 ml with Buffer A and loaded onto a 2.0×19 cm QAE-Sepharose column (1 ml/min, 4° C.), that had been equilibrated in Buffer A. The column was washed isocratically for 180 min and then eluted with a gradient eluent of […] aqueous sodium chloride in Buffer A over 120 min. Enzymatic activity was measured by HPLC using the synthetic peptide Ser-Gln-Asn-Tyr-Pro-Ile-Val as described in Margolin et al., Biochem. Biophys. Res. Commun., 167, 554-560 (1990); the production of the p1 peptide (Ser-Gln-Asn-Tyr) was measured.
The active fractions were combined, adjusted to […] 1.2M in ammonium sulfate, and applied to a 2.0×18 cm hexyl agarose column that had been equilibrated in Buffer A containing 1.2M ammonium sulfate. The sample was loaded at a flow rate of 1 ml/min at 4° C., washed with the equilibration buffer for 240 min (1 ml/min) and then eluted using a reverse linear gradient of 1.2-0M ammonium sulfate in Buffer A for 120 min at the same flow rate. The column was then washed isocratically in Buffer A for 120 min.
The active fractions were combined, concentrated to 10 ml using an Amicon stirred cell with a YM-10 membrane and then applied to a MonoS cation exchange column (1.0×10 cm) that had been equilibrated in Buffer A. The sample was loaded at a flow rate of 1 ml/min at 25° C. After washing isocratically for 30 min, the protease was eluted using a linear gradient of 0-0.45M aqueous sodium chloride in Buffer A over 40 min. The column was washed isocratically in Buffer A containing 0.45M aqueous sodium chloride for 30 minutes.
The active fractions were combined and concentrated to 200 microliters using an Amicon stirred cell and a YM-10 membrane and then the protease was applied to a Superose 6 size exclusion column equilibrated in Buffer A containing 0.1M aqueous sodium chloride.

[2] = Human immunodeficiency virus 1, CCRF-CEM, read-out: Whole cell IC50 nM, CEM cells, values in parentheses are 35B in same assay
[3] = Human immunodeficiency virus 1, CCRF-CEM, read-out: Whole cell IC90 nM, CEM cells, values in parentheses are 35B in same assay
[4] = normalized to positive control (=1.0), * = a calculated average, read-out: Fluorescence Assay IC50 in ng/mL (converted)
[5] = value as run, 35B value of the same run in footnote or parentheses, read-out: Pandex IC50 ng/ml (converted)
[6] = normalized to positive control (=1.0), * = a calculated average
[7] = value as run, 35B value of the same run in footnote or parentheses

Row | Compound | IC50 [1, 2] | IC90 [1, 3] | IC50 (HIV-1 protease; [4]) | IC50 (HIV-1 protease; [5]) | other results
1 | Cc1ccccc1C(=O)NC(CSc1ccccc1)C(O)CN1CC2CCCCC2CC1C(=O)NC(C)(C)C (stereo not drawn) [Example 29, [3S-(3R*,4aR*,8aR*,2′S*,3′S*)]-2-[2′-Hydroxy-3′-phenylthiomethyl-4′-aza-5′-oxo-5′-(2″-methyl-phenyl)pentyl] decahydroisoquinoline-3-N-t-butylcarboxamide] | 1590 nM | 4460 nM | 3.08 nM | 3.62 nM | 
2 | Cc1c(O)cccc1C(=O)N[C@@H](CSc1ccccc1)[C@H](O)CN1C[C@H]2CCS[C@H]2C[C@H]1C(=O)NC(C)(C)C (relative stereo) [Example 74 I, [6S-(6R*, 3aS*, 7aR*, 2′S*, 3′S*)]-2-[2′-Hydroxy-3′-phenylthiomethyl-4′-aza-5′-oxo-5′-(2″-methyl-3″-hydroxyphenyl)pentyl]-octahydrothieno[3,2-c]pyridine-6-N-t-butyl carboxamide methanesulfonic acid salt] |  |  |  |  | IC50 ([1]; Human immunodeficiency virus 1, CCRF-CEM, read-out: Whole cell IC50 nM): 4.06 nM; IC90 ([1]; Human immunodeficiency virus 1, CCRF-CEM, read-out: Whole cell IC90 nM): 9.74 nM; IC50 (HIV-1 protease; Table 2, read-out: IC50 (Pandex)): 0.3 nM
3 | Cc1c(O)cccc1C(=O)N[C@@H](CSc1ccccc1)[C@H](O)CN1CCN(Cc2cccnc2)C[C@H]1C(=O)NC(C)(C)C [Example 19] | 16.1 nM | 42 nM | 0.528 nM | 0.693 nM | 
4 | Cc1c(OP(=O)(O)O)cccc1C(=O)N[C@@H](CSc1ccccc1)[C@H](O)CN1C[C@H]2CCCC[C@H]2C[C@H]1C(=O)NC(C)(C)C.Cl (relative stereo) [Example 80, [3S-(3R*, 4aR*, 8aR*, 2′S*, 3′S*)]-2-[2′-Hydroxy-3′-phenylthiomethyl-4′-aza-5′-oxo-5′-(2″-methyl-3″-Hydroxyphenyl)pentyl]-decahydroisoquinoline-3-N-t-butyl carboxamide 3″-Dihydrogen Phosphate Hydrochloride] | 8.99 nM | 27.9 nM |  | 5.85 nM | Pandex % at 22 (HIV-1 protease; at 22 (ng/ml), wrapped cell): 0.3% at
5 | Cc1c(F)cccc1C(=O)NC(Cc1ccccc1)C(O)CN1CC2CCCCC2CC1C(=O)NC(C)(C)C (stereo not drawn) [Example 7, [3S-(3R*,4aR*,8aR*,2′S*,3′R*)]-2-[2′-Hydroxy-3′-phenylmethyl-4′-aza-5′-oxo-5′-(2″-methyl-3″-fluorophenyl)pentyl] decahydroisoquinoline-3-N-t-butylcarboxamide] | 323 nM |  | 474 nM |  | 
6 | [2S-(2R*,2′S*,3′S*)]-1-[2′-Hydroxy-3′-phenylthiomethyl-4′-aza-5′-oxo-5′-(quinolin-5″-yl)pentyl]-4-(pyrid-3′″-ylmethyl)piperazine-2N-t-butylcarboxamide [Example 34] |  |  |  |  | IC50 ([1]; read-out: Whole cell IC50 nM, CEM cells, values in parentheses are 35B in same assay): 149 nM; IC90 ([1]; read-out: Whole cell IC90 nM, CEM cells, values in parentheses are 35B in same assay): 564 nM; Fluorescence Assay IC50 (HIV-1 protease; [6]): 0.0045 µg/mL; Pandex IC50 ng/ml (HIV-1 protease; [7]): 5.4^b ng/ml
7 | CC(C)(C)NC(=O)[C@@H]1CN(Cc2cccnc2)CCN1C[C@@H](O)[C@H](CSc1ccccc1)NC(=O)c1cccc2c1CCCN2 [Example 33, [3S-(2R*,2′S*,3′S*)]-1-[2′-Hydroxy-3′-phenylthiomethyl-4′-aza-5′-oxo-5′-(1″,2″,3″,4″-tetrahydroquinolin-5″-yl)pentyl]-4-(pyrid-3′″-ylmethyl)piperazine-2N-t-butylcarboxamide] | 39.5 nM | 200 nM | 2.69 nM | 3.17 nM | 
8 | CC(C)(C)NC(=O)C1CC2CCCCC2CN1CC(O)C(CSc1ccccc1)NC(=O)c1cccc2c1CCCN2 (stereo not drawn) [Example 32, [3S-(3R*,4aR*,8aR*,2′S*,3′S*)]-2-[2′-Hydroxy-3′-phenylthiomethyl-4′-aza-5′-oxo-5′-(1″,2″,3″,4″-tetrahydroquinolin-5″-yl)pentyl] decahydroisoquinoline-3-N-t-butylcarboxamide] | 539 nM | 2310 nM | 0.877 nM | 2.53 nM | 
9 | CC(C)(C)NC(=O)C1CC2CCCCC2CN1CC(O)C(CSc1ccccc1)NC(=O)c1cccc2ncccc12 (stereo not drawn) [Example 31, [3S-(3R*,4aR*,8aR*,2′S*,3′S*)]-2-[2′-Hydroxy-3′-phenylthiomethyl-4′-aza-5′-oxo-5′-(quinolin-5″-yl)pentyl] decahydroisoquinoline-3-N-t-butylcarboxamide] | 430 nM | 884 nM | 2.04 nM | 5.94 nM | 
10 | CC(C)(C)NC(=O)[C@@H]1C[C@@H]2CCCC[C@@H]2CN1C[C@@H](O)[C@H](Cc1ccccc1)NC(=O)c1ccsc1 (relative stereo) [Example 87, [3S-(3R*, 4aR*, 8aR*, 2′S*, 3′R*)]-2-[2′-Hydroxy-3′-phenylmethyl-4′-aza-5′-oxo-5′-(thieno-3″-yl)pentyl]-decahydroisoquinoline-3-N-t-butyl carboxamide] |  |  |  |  | Pandex IC50 (given as % at concentration) (HIV-1 protease; at 1,000 ng/ml): 25%
11 | Cc1c(N)cc(N)cc1C(=O)NC(Cc1ccccc1)C(O)CN1CC2CCCCC2CC1C(=O)NC(C)(C)C (stereo not drawn) [Example 9, [3S-(3R*,4aR*,8aR*,2′S*,3′R*)]-2-[2′-Hydroxy-3′-phenylmethyl-4′-aza-5′-oxo-5′-(2″-methyl-3″,5″-diaminophenyl)pentyl] decahydroisoquinoline-3N-t-butylcarboxamide] |  |  | 30.9 nM | 95.9 nM | 
12 | Cc1c(O)cccc1C(=O)NC(Cc1ccccc1)C(O)CN1CC2CCCCC2CC1C(=O)NC(C)(C)C (stereo not drawn) [Example 28, [3S-(3R*,4aR*,8aR*,2′S*,3′R*)]-2-[2′-Hydroxy-3′-phenylmethyl-4′-aza-5′-oxo-5′-(2″-methyl-3″-hydroxyphenyl)pentyl] decahydroisoquinoline-3-N-t-butylcarboxamide monomesylplate salt] |  |  |  |  | IC50 ([1]; read-out: Whole cell IC50 nM, CEM cells, tested as the mesylate salt): 35.7 nM; IC90 ([1]; read-out: Whole cell IC90 nM, CEM cells, tested as the mesylate salt): 91.8 nM
13 | CC(C)(C)NC(=O)c1ccccc1C[C@@H](O)[C@@H](CSc1ccc2ccccc2c1)NC(=O)c1cccc(O)c1 (relative stereo) [Example 51, [2′R-(2′R*,3′S*)]-N-t-Butyl-2-[2′-hydroxy-3′-naphth-2-ylthiomethyl-4′-aza-5′-oxo-5′-(3″-hydroxyphenyl)pentyl] benzamide] |  |  |  |  | Fluorescence Assay IC50 (HIV-1 protease; [6]): 0.5 µg/mL
14 | [3S-(3R*,4aR*,8aR*,2′S*,3′S*)]-2-[2′-Hydroxy-3′-phenylthiomethyl-4′-aza-5′-oxo-5′-[6″-methyl-(1″,2″,3″,4″-tetrahydroquinolin-5″-yl)]pentyl] decahydroisoquinoline-3-N-t-butylcarboxamide [Example 38] |  |  |  |  | Fluorescence Assay IC50 (HIV-1 protease; [6]): 0.0152 µg/mL; Pandex IC50 ng/ml (HIV-1 protease; [7]): 35^e ng/ml
15 | Cc1c(O)cccc1C(=O)N[C@@H](CSc1ccccc1)[C@H](O)CN1C[C@H]2CCCC[C@H]2C[C@H]1C(=O)NC(C)(C)C (relative stereo) [Example 75, [3S-(3R*, 4aR*, 8aR*, 2′S*, 3′S*)]-2-[2′-Hydroxy-3′-phenylthiomethyl-4′-aza-5′-oxo-5′-(2″-methyl-3″-hydroxyphenyl)pentyl]-decahydroisoquinoline-3-N-t-butyl carboxamide methanesulfonic acid salt] | 14.5 nM | 56.1 nM |  |  | 
